This note sets out measurements from PMC6327999, “Hydroxyl-substituted double Schiff-base condensed 4-piperidone/cyclohexanones as potential anticancer agents with biological evaluation” (Journal of Enzyme Inhibition and Medicinal Chemistry, 2019).

Experiment [1] concerns human chronic myelogenous leukemia cell line (K562). The experiment in a line: Cytotoxicity, MTT assay, K562. Format: cell-based. An outline of the steps: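 Cells seeded 1 × 10^4/well for 24 h, then exposed to serial compound concentrations (50–0.01 µg/mL) for 24 h at 37 °C, 5% CO2; LO2, K562, HeLa, SGC7901 grown in 1640 medium with 10% FBS. MTT 4 h, formazan in DMSO, OD 570 nm; IC50 from triplicate viability versus untreated controls.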

The test system of experiment [2] is human carcinoma cell lines A549, SGC7901, HePG2, HeLa, K562, THP-1. Kind of experiment: Cytotoxicity, MTT assay, panel of human carcinoma cell lines (average / overall). It is filed as cell-based. The settings on record: for IC50: Homo sapiens. An outline of the steps: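 Cells seeded at 1 × 10^4 cells/well for 24 h, then given serial compound concentrations of 50 to 0.01 µg/mL for 24 h at 37 °C. Viability by MTT, 4 h, formazan dissolved in DMSO, OD at 570 nm versus 0.1% DMSO controls. IC50 from triplicates.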

In another experiment the test system is Bcl-2. Kind of experiment: Western blot, Bcl-2 expression. It is filed as cell-based, human. The settings on record: HepG2, 3 h, 1.0, 2.0, 4.0 µM, vs negative control. How it is done: The HepG2 cell lines were treated with different dose of by BAP 5c (1.0, 2.0, 4.0 µM, respectively) for 3 hours, then washed twice with PBS, and lysed in ice-cold modified RIPA buffer containing PMSF (RIPA:PMSF = 100:1; the ultimate density of PMSF is 1.0 mM). The lysates were kept for 30 minutes on the ice, and then centrifuged for 15 min at 12000 rpm/min at 4 °C and the supernatant was collected. The proteins were boiled at 95 °C at 5 min with loading buffer (the volume ratio of protein and the loading buffer is 4:1). Each 50 µg protein of cell lysates were separated by 10% SDS-PAGE gel electrophoresis. The proteins were then transferred onto polyvinylidene fluorides membrane. The membranes were probed with antibodies and visualised using an enhanced chemiluminescence (ECL) detection kit according to the manufacturer instruction.
On the technique in general: A western blot detects proteins with antibodies after separation by electrophoresis.

The test system of another experiment is HepG2 xenografts. The experiment in a line: In vivo antitumor efficacy, HepG2-bearing nude mice. Details: species or system Balb/c nude mice. How it is done:
The antitumor effect was investigated on the seven-week-old female Balb/c nude mice (n = 30) weighing 19–21 grams (Shanghai Laboratory Animal Center). Briefly, 0.2 mL HepG2 cells (1 × 10^7/mL) were inoculated subcutaneously into the alar left of each mouse. On the third day after the inoculation, the HepG2-bearing mice were randomly divided into five groups (n = 6/group) and administrated the according drug or solvent. […] The control group was administrated of saline as negative control. The body weight and tumor volumes calculation were recorded from the day of treatment, and the tumor volumes were calculated using the following equation: tumor volume = length × (width)^2 × π/6. Animal experiments were reviewed and approved by the Binzhou Medical University Experimental Animal Committee.

The test system of experiment [3] is human liver hepatocellular carcinoma cell line (Hepg2). Kind of experiment: Cytotoxicity, MTT assay, HePG2. Format: cell-based. An outline of the steps:
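HepG2 cells in DMEM/10% FBS, seeded 1 × 10^4 cells/well for 24 hours, then exposed 24 hours to compounds at 0.01–50 µg/mL (0.1% DMSO control).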
A general note: Formazan colour is commonly taken as a measure of viable cells.

Experiment [4] concerns human acute mononuclear granulocyte leukemia (THP-1). The experiment in a line: Cytotoxicity, MTT assay, THP-1. Format: cell-based. The gist of the method: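 MTT viability readout (570 nm, DMSO-solubilized formazan after 4 h MTT) following 24 h compound exposure across 0.01–50 µg/mL, triplicates. Cultures in 1640 medium plus 10% FBS, 37 °C, 5% CO2, plated at 1 × 10^4 cells/well a day before; IC50 relative to untreated wells, 0.1% DMSO controls.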

Setting [5] is: quotient of the IC50 values towards nonmalignant LO2 cells.

A word on the IC50: it is the point on the concentration scale where inhibition reaches its midpoint.

Like-named read-outs stand apart in the source and are kept apart here. Some results are limits rather than exact numbers.

`O=C1/C(=C/c2cc(/N=C/c3ccc(O)c(O)c3O)ccc2F)CNC/C1=C\c1cc(/N=C/c2ccc(O)c(O)c2O)ccc1F` [5c]: the IC50 in experiment [1] (Homo sapiens, K562, MTT, 24 hours) was 1.3 ± 0.1 µM; in experiment [2] (average over the six carcinoma cell lines, read-out: Ave IC50), 1.2 µM; in experiment [2] (statement for all experimental carcinoma cell lines, read-out: IC50 values against human carcinoma cell lines), less than 2 µM; in experiment [3] (Homo sapiens, HepG2, MTT, 24 hours), 0.6 ± 0.1 µM; in experiment [4] (Homo sapiens, THP-1, MTT, 24 hours), 0.9 ± 0.2 µM. Moreover, the “K562 SI” value in experiment [1] (setting [5]) came to 11.8. Further, in experiment [2] (average over the six carcinoma cell lines), the “Ave SI” value is reported as 14.1. Moreover, the “expression level of Bcl-2” value with Bcl-2 is listed as “down-regulate the expression level of Bcl-2”. Further, the tumor growth inhibition entry in the experiment with HepG2 xenografts (1.0 mg/kg/d i.p. for 20 days) was “light inhibitory activity”; in the experiment with HepG2 xenografts (10 mg/kg/d i.p. for 20 days) it was “significantly inhibited the tumor growth”. Moreover, in experiment [3] (setting [5]), the “HePG2 SI” value amounted to 24.5. The “THP-1 SI” value in experiment [4] (setting [5]) is reported as 17.0.
